Where “and” joins values, the source holds several entries; their conditions need not be identical. Equal entries are not always repeated. Where two headings read alike, the source gives them in different places.
Target: beta1 (right auricle of rats, stimulated by isoprenaline) (Rattus norvegicus, UniProt P18090)
Conditions: for log (x - 1): Van Rossum's table; for Kb: agonist isoprenaline; for type of antagonism towards isoprenaline: simple displacement of curves to the right
[1] = antagonist concentration 10^-8 M
[2] = pA2 (overall), n = 11, all antagonist concentrations
[3] = pA2, single preparation, antagonist concentration 10^-8 M
[4] = antagonist concentration 3 × 10^-8 M
[5] = antagonist concentration 3 × 10^-9 M

Chain of beta1 (right auricle of rats, stimulated by isoprenaline) (P18090 whole entry): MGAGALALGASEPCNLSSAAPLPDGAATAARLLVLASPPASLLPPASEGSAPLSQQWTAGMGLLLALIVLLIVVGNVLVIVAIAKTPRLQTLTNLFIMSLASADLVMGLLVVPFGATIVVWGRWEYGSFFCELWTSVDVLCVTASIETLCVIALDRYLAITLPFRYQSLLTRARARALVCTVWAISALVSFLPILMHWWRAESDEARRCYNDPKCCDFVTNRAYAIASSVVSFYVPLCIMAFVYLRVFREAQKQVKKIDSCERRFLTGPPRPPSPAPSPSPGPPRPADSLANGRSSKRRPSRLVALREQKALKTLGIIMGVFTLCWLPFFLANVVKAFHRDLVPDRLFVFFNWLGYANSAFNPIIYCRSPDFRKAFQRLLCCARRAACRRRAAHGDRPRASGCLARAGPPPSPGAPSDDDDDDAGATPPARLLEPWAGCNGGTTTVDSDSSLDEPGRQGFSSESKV

SMILES	x (displacement of the curve) [1]	log (x - 1) [1]	Kb [2]	Kb [3]	beta1-adrenolytic activity (pharmacological tests in vitro, in words)	beta1-adrenolytic / beta1-antagonistic activity relative to tertatolol (relative to tertatolol)	type of antagonism towards isoprenaline	x (displacement of the curve) [4]	log (x - 1) [4]	x (displacement of the curve) [5]	log (x - 1) [5]	x (displacement of the curve) (antagonist concentration 10^-9 M)	Kb (pA2, single preparation, antagonist concentration 3 × 10^-8 M)	Kb (pA2, single preparation, antagonist concentration 3 × 10^-9 M)	times more powerful than propanolol (relative to propanolol)
CC(C)(C)NCC(O)COc1cccc2c1SCCC2O (centres unmarked) [Compound of the formula I, 1-tert.-butylamino-3-(4-hydroxy-8-thiochromanyloxy)-2-propanol]	37.5 mm and 38 mm and 31 mm	1.22 and 1.24 and 0.99	0.575 nM	0.603 nM and 0.575 nM and 1.02 nM	very high beta1 -adrenolytic activity	twice that of tertatolol	competitive type	–	–	–	–	–	–	–	–
CC(C)(C)NCC(O)COc1cccc2c1SCCC2 (centres unmarked) [Tertatolol, 1-tert.-butylamino-3-(8-thiochromanyloxy)-2-propanol]	41 mm and 46 mm and 47 mm	1.35 and 1.52 and 1.55	0.912 nM	0.447 nM and 0.302 nM and 0.282 nM	–	–	competitive type	35 mm and 32.5 mm	1.13 and 1.05	25.5 mm and 27 mm and 19.5 mm	0.78 and 0.84 and 0.54	6 mm and 7 mm and 3.5 mm	2.24 nM and 2.69 nM	0.501 nM and 0.437 nM and 0.871 nM	6 times

Source: patent US4703057A, “Beta-blocking thiochroman derivatives, compositions and method of use therefor” (ADIR Et Compagnie, priority 1985, dated 1987)
